Source: patent publication US20170333391A1, “METHOD FOR DELAYING THE ONSET OF PULMONARY FIBROSIS OR TREATING PULMONARY FIBROSIS” (EVERFRONT BIOTECH INC., priority 2016, published 2017)

Columns and labels:
[1] = tested on: Rat type II alveolar cell, L2 cell line; experiment: Cell survival test (MTT analysis) under H2O2 oxidative stress; assay type: cell-based; conditions: 24 hours, control group = 100%
Protocol: The rat type II alveolar cell, L2 cell line (ATCC® CCL149™) were seeded into a 96-well plate at a density of 5×10^3 cells/well, 48 wells in total (separated into a control group and five experimental groups, 8 wells for each group). The cells were cultured until the next day, and then the mediums were removed. Each group was respectively treated under the following conditions to conduct follow-up experiments:
(1) Control group: cells were cultured in a F-12K medium (Kaighn's Modification of Ham's F-12 Medium, ATCC® 30-2004™) for 24 hours;
(2) Group 1: cells were cultured in a F-12K medium containing H2O2 (0.1 mM) for 24 hours;
(3) Group 2: cells were cultured in a F-12K medium containing H2O2 (0.1 mM) and compound (1) (5 μg/ml) for 24 hours;
(4) Group 3: cells were cultured in a F-12K medium containing H2O2 (0.1 mM) and N-acetylcysteine (NAC) (2 mM) for 24 hours;
(5) Group 4: cells were cultured in a F-12K medium containing H2O2 (0.2 mM) and compound (1) (5 μg/ml) for 24 hours; and
(6) Group 5: cells were cultured in a F-12K medium containing H2O2 (0.2 mM) and NAC (2 mM) for 24 hours.
The mediums were removed after culturing was complete, and then each group was respectively treated under the following conditions: F-12K mediums containing 10% of 3-(4,5-Dimethylthiazol-2-yl)-2,5-diphenyltetrazolium bromide (MTT) were added into each well, and cultured for 1 hour. Thereafter, the mediums were removed, and a suitable amount of dimethyl sulfoxide (DMSO) was added into the wells. An Enzyme-Linked ImmunoSorbent Assay reader (ELISA reader) was then used for detecting the absorbance of each group at a wavelength of 595 nm (OD595nm). The average value of each group was respectively calculated (n=8), and then the result of the control group served as the basis for calculating the relative survival rates of the other groups.

type I collagen = experiment: Type I collagen expression in TGF-β1-induced NHLF, western blotting (2-2); assay type: cell-based, human; conditions: TGF-β1-only control group = 1
Protocol: Normal Human lung fibroblasts (NHLF) were seeded into 6 cm culture dishes at a density of 2×10^5 cells/dish, comprising a control group and six experimental groups (7 dishes in total). The cells were cultured until the next day, and then the mediums were removed. Each group was respectively treated under the following conditions to conduct follow-up experiments: • (1) Positive control group: cells were cultured in a FGM-2 medium containing 1% serum and TGF-β1 (5 ng/ml) for 36 hours; • (2) Group I: cells were firstly cultured in a FGM-2 medium containing 1% serum and TGF-β1 (5 ng/ml) for 12 hours, and then compound (1) was added into the medium to provide a final concentration of 15 μg/ml; thereafter, the cells were cultured for another 24 hours; • (3) Group II: cells were firstly cultured in a FGM-2 medium containing 1% serum and TGF-β1 (5 ng/ml) for 12 hours, and then compound (1) was added into the medium to provide a final concentration of 25 μg/ml; thereafter, the cells were cultured for another 24 hours; • (4) Group III: cells were firstly cultured in a FGM-2 medium containing 1% serum and TGF-β1 (5 ng/ml) for 12 hours, and then compound (1) was added into the medium to provide a final concentration of 35 μg/ml; thereafter, the cells were cultured for another 24 hours; • (5) Group IV: cells were firstly cultured in a FGM-2 medium containing 1% serum and TGF-β1 (5 ng/ml) for 12 hours, and then the Pirfenidone was added into the medium to provide a final concentration of 100 μg/ml; thereafter, the cells were cultured for another 24 hours; • (6) Group V: cells were firstly cultured in a FGM-2 medium containing 1% serum and TGF-β1 (5 ng/ml) for 12 hours, and then the Pirfenidone was added into the medium to provide a final concentration of 250 μg/ml; thereafter, the cells were cultured for another 24 hours; and • (7) Group VI: cells were firstly cultured in a FGM-2 medium containing 1% serum and TGF-β1 (5 ng/ml) for 12 hours, and then the Pirfenidone was added into the medium to provide a final concentration of 500 μg/ml; thereafter, the cells were cultured for another 24 hours.
(§1) Thereafter, the proteins in the cells of each group were extracted, and the expressions of type I collagen, BMP-7 protein and TGF-β protein in the NHLF cells of each group were measured with western blotting. The results of the control group served as the basis for calculating the relative expression levels of the other groups.

BMP-7 protein = BMP-7 protein expression in TGF-β1-induced NHLF, western blotting (Example 4); assay type: cell-based, human; conditions: uninduced control = 1, TGF-β1-only group A = 0.19
Protocol: Normal Human lung fibroblasts (NHLF) were seeded into 6 cm culture dishes at a density of 2×10^5 cells/dish, comprising a control group and five experimental groups (6 dishes in total). The cells were cultured until the next day, and then the mediums were removed. Each group was respectively treated under the following conditions to conduct follow-up experiments: • (1) Control group: cells were cultured in a FGM-2 medium containing 1% serum for 36 hours; • (2) Group A: cells were cultured in a FGM-2 medium containing 1% serum and TGF-β1 (5 ng/ml) for 36 hours; • (3) Group B: cells were firstly cultured in a FGM-2 medium containing 1% serum and TGF-β1 (5 ng/ml) for 12 hours, and then compound (1) was added into the medium to provide a final concentration of 15 μg/ml; thereafter, the cells were cultured for another 24 hours; • (4) Group C: cells were firstly cultured in a FGM-2 medium containing 1% serum and TGF-β1 (5 ng/ml) for 12 hours, and then compound (1) was added into the medium to provide a final concentration of 30 μg/ml; thereafter, the cells were cultured for another 24 hours; • (5) Group D: cells were firstly cultured in a FGM-2 medium containing 1% serum and TGF-β1 (5 ng/ml) for 12 hours, and then compound (2) was added into the medium to provide a final concentration of 100 μg/ml; thereafter, the cells were cultured for another 24 hours; and • (6) Group E: cells were firstly cultured in a FGM-2 medium containing 1% serum and TGF-β1 (5 ng/ml) for 12 hours, and then compound (2) was added into the medium to provide a final concentration of 200 μg/ml; thereafter, the cells were cultured for another 24 hours.
as §1, with “of” for “of type I collagen,”, “BMP-7 protein, TGF-β” for “BMP-7”, “p-smad2/3” for “TGF-β”

CCCC=C1OC(=O)c2ccccc21 [compound (1)]
Relative survival rate ([1]; Group 2: H2O2 0.1 mM + compound (1) 5 μg/ml, H2O2 0.1 mM alone = 38.9%): 109.4%
Relative survival rate ([1]; Group 4: H2O2 0.2 mM + compound (1) 5 μg/ml): 80.6%
Relative expression level (fold) Type I collagen (type I collagen; Group I: TGF-β1 5 ng/ml 12 h, then compound (1) 15 μg/ml 24 h): 0.79 fold
Relative expression level (fold) Type I collagen (type I collagen; Group II: TGF-β1 5 ng/ml 12 h, then compound (1) 25 μg/ml 24 h): 0.30 fold
Relative expression level (fold) Type I collagen (type I collagen; Group III: TGF-β1 5 ng/ml 12 h, then compound (1) 35 μg/ml 24 h): 0.51 fold
Relative expression level (fold) BMP-7 protein (BMP-7 protein; Group B: TGF-β1 5 ng/ml 12 h, then compound (1) 15 μg/ml 24 h): 0.68 fold
Relative expression level (fold) BMP-7 protein (BMP-7 protein; Group C: TGF-β1 5 ng/ml 12 h, then compound (1) 30 μg/ml 24 h): 0.31 fold
